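Cultured in 96-well plates, cells were exposed to test compound for 48 hours across five concentrations. At the GI50, growth is halved. The concentration for full growth arrest is given as TGI.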
Key:
Experiment in all cases: DTP human tumour cell line panel, 48 h
A498 renal = system: A498 renal
MALME-3M melanoma = system: MALME-3M melanoma
SN12C renal = system: SN12C renal
786-0 renal = system: 786-0 renal
ACHN renal = system: ACHN renal
HOP-62 NSCLC = system: HOP-62 NSCLC
UACC-257 melanoma = system: UACC-257 melanoma
MDA-MB-231 breast = system: MDA-MB-231 breast
SK-MEL-28 melanoma = system: SK-MEL-28 melanoma
NCI-H23 lung = system: NCI-H23 lung
M14 melanoma = system: M14 melanoma
MCF7 breast = system: MCF7 breast
SK-OV-3 ovarian = system: SK-OV-3 ovarian
SR leukemia = system: SR leukemia
EKVX NSCLC = system: EKVX NSCLC
RXF 393 renal = system: RXF 393 renal
IGROV1 ovarian = system: IGROV1 ovarian
OVCAR-4 ovarian = system: OVCAR-4 ovarian
HL-60(TB) leukemia = system: HL-60(TB) leukemia
SNB-19 CNS = system: SNB-19 CNS
LOX IMVI melanoma = system: LOX IMVI melanoma
OVCAR-3 ovarian = system: OVCAR-3 ovarian
NCI-H460 lung = system: NCI-H460 lung
SK-MEL-5 melanoma = system: SK-MEL-5 melanoma
SF-295 CNS = system: SF-295 CNS
KM12 colon = system: KM12 colon
SK-MEL-2 melanoma = system: SK-MEL-2 melanoma
SF-268 CNS = system: SF-268 CNS
UO-31 renal = system: UO-31 renal
NCI-H226 lung = system: NCI-H226 lung
SF-539 CNS = system: SF-539 CNS
MDA-MB-435 = system: MDA-MB-435
OVCAR-8 ovarian = system: OVCAR-8 ovarian
TK-10 renal = system: TK-10 renal
U251 CNS = system: U251 CNS
DU-145 prostate = system: DU-145 prostate
MDA-MB-468 breast = system: MDA-MB-468 breast
SNB-75 CNS = system: SNB-75 CNS
CCRF-CEM leukemia = system: CCRF-CEM leukemia
UACC-62 melanoma = system: UACC-62 melanoma
HT29 colon = system: HT29 colon
NCI-H522 lung = system: NCI-H522 lung
BT-549 breast = system: BT-549 breast
RPMI-8226 leukemia = system: RPMI-8226 leukemia
HOP-92 NSCLC = system: HOP-92 NSCLC
COLO 205 colon = system: COLO 205 colon
MOLT-4 leukemia = system: MOLT-4 leukemia
A549 NSCLC = system: A549 NSCLC
HCT-15 colon = system: HCT-15 colon
T-47D breast = system: T-47D breast
PC-3 prostate = system: PC-3 prostate
NCI/ADR-RES ovarian = system: NCI/ADR-RES ovarian
HCT-116 colon = system: HCT-116 colon
K-562 leukemia = system: K-562 leukemia
CAKI-1 renal = system: CAKI-1 renal
HCC-2998 colon = system: HCC-2998 colon
HS 578T breast = system: HS 578T breast
SW-620 colon = system: SW-620 colon
OVCAR-5 ovarian = system: OVCAR-5 ovarian

SMILES: Nc1nc(Nc2ccc(Cl)cc2)n(Cc2cccc(Br)c2)n1
- GI50 (A498 renal): 26.7 µM
- TGI (A498 renal): 85.9 µM
- GI50 (MALME-3M melanoma): 21.5 µM
- TGI (MALME-3M melanoma): 71.2 µM
- GI50 (SN12C renal): 26.2 µM
- TGI (SN12C renal): > 100 µM
- GI50 (786-0 renal): 34.9 µM
- TGI (786-0 renal): > 100 µM
- GI50 (ACHN renal): 29.3 µM
- TGI (ACHN renal): > 100 µM
- GI50 (HOP-62 NSCLC): 49 µM
- TGI (HOP-62 NSCLC): > 100 µM
- GI50 (UACC-257 melanoma): 33.6 µM
- TGI (UACC-257 melanoma): > 100 µM
- GI50 (MDA-MB-231 breast): 30.5 µM
- TGI (MDA-MB-231 breast): > 100 µM
- GI50 (SK-MEL-28 melanoma): 26 µM
- TGI (SK-MEL-28 melanoma): > 100 µM
- GI50 (NCI-H23 lung): 29 µM
- TGI (NCI-H23 lung): > 100 µM
- GI50 (M14 melanoma): 29.5 µM
- TGI (M14 melanoma): > 100 µM
- GI50 (MCF7 breast): 25.1 µM
- TGI (MCF7 breast): > 100 µM
- GI50 (SK-OV-3 ovarian): 34.5 µM
- TGI (SK-OV-3 ovarian): > 100 µM
- GI50 (SR leukemia): 57.6 µM
- TGI (SR leukemia): > 100 µM
- GI50 (EKVX NSCLC): 25.2 µM
- TGI (EKVX NSCLC): > 100 µM
- GI50 (RXF 393 renal): 17 µM
- TGI (RXF 393 renal): 60.5 µM
- GI50 (IGROV1 ovarian): 30.7 µM
- TGI (IGROV1 ovarian): > 100 µM
- GI50 (OVCAR-4 ovarian): 34 µM
- TGI (OVCAR-4 ovarian): > 100 µM
- GI50 (HL-60(TB) leukemia): 24.6 µM
- TGI (HL-60(TB) leukemia): 71.8 µM
- GI50 (SNB-19 CNS): 30.7 µM
- TGI (SNB-19 CNS): > 100 µM
- GI50 (LOX IMVI melanoma): 17.2 µM
- TGI (LOX IMVI melanoma): 35.9 µM
- GI50 (OVCAR-3 ovarian): 33.8 µM
- TGI (OVCAR-3 ovarian): > 100 µM
- GI50 (NCI-H460 lung): 23.7 µM
- TGI (NCI-H460 lung): 57.5 µM
- GI50 (SK-MEL-5 melanoma): 17.4 µM
- TGI (SK-MEL-5 melanoma): 33.5 µM
- GI50 (SF-295 CNS): 22.6 µM
- TGI (SF-295 CNS): 74.9 µM
- GI50 (KM12 colon): 33.3 µM
- TGI (KM12 colon): > 100 µM
- GI50 (SK-MEL-2 melanoma): 18.9 µM
- TGI (SK-MEL-2 melanoma): 38.1 µM
- GI50 (SF-268 CNS): 27.9 µM
- TGI (SF-268 CNS): > 100 µM
- GI50 (UO-31 renal): 21 µM
- TGI (UO-31 renal): 90.4 µM
- GI50 (NCI-H226 lung): 25.3 µM
- TGI (NCI-H226 lung): > 100 µM
- GI50 (SF-539 CNS): 22.2 µM
- TGI (SF-539 CNS): 62.1 µM
- GI50 (MDA-MB-435): 19 µM
- TGI (MDA-MB-435): 42.2 µM
- GI50 (OVCAR-8 ovarian): 35.7 µM
- TGI (OVCAR-8 ovarian): > 100 µM
- GI50 (TK-10 renal): 40 µM
- TGI (TK-10 renal): > 100 µM
- GI50 (U251 CNS): 31.3 µM
- TGI (U251 CNS): > 100 µM
- GI50 (DU-145 prostate): 41.1 µM
- TGI (DU-145 prostate): > 100 µM
- GI50 (MDA-MB-468 breast): 16.8 µM
- TGI (MDA-MB-468 breast): 45.3 µM
- GI50 (SNB-75 CNS): 15.5 µM
- TGI (SNB-75 CNS): 60.6 µM
- GI50 (CCRF-CEM leukemia): 36.8 µM
- TGI (CCRF-CEM leukemia): > 100 µM
- GI50 (UACC-62 melanoma): 18.3 µM
- TGI (UACC-62 melanoma): 61.1 µM
- GI50 (HT29 colon): 35.6 µM
- TGI (HT29 colon): > 100 µM
- GI50 (NCI-H522 lung): 18.7 µM
- TGI (NCI-H522 lung): 44.5 µM
- GI50 (BT-549 breast): 38.8 µM
- TGI (BT-549 breast): 92 µM
- GI50 (RPMI-8226 leukemia): 31.6 µM
- TGI (RPMI-8226 leukemia): > 100 µM
- GI50 (HOP-92 NSCLC): 19.4 µM
- TGI (HOP-92 NSCLC): 63.8 µM
- GI50 (COLO 205 colon): 37.4 µM
- TGI (COLO 205 colon): > 100 µM
- GI50 (MOLT-4 leukemia): 25.6 µM
- TGI (MOLT-4 leukemia): > 100 µM
- GI50 (A549 NSCLC): 32.9 µM
- TGI (A549 NSCLC): > 100 µM
- GI50 (HCT-15 colon): 27 µM
- TGI (HCT-15 colon): > 100 µM
- GI50 (T-47D breast): 30.5 µM
- TGI (T-47D breast): > 100 µM
- GI50 (PC-3 prostate): 29.8 µM
- TGI (PC-3 prostate): > 100 µM
- GI50 (NCI/ADR-RES ovarian): 20.2 µM
- TGI (NCI/ADR-RES ovarian): 51.5 µM
- GI50 (HCT-116 colon): 31.3 µM
- TGI (HCT-116 colon): > 100 µM
- GI50 (K-562 leukemia): 28 µM
- TGI (K-562 leukemia): > 100 µM
- GI50 (CAKI-1 renal): 25.9 µM
- TGI (CAKI-1 renal): > 100 µM
- GI50 (HCC-2998 colon): 27 µM
- TGI (HCC-2998 colon): > 100 µM
- GI50 (HS 578T breast): 24.4 µM
- TGI (HS 578T breast): 96.3 µM
- GI50 (SW-620 colon): 32.8 µM
- TGI (SW-620 colon): > 100 µM
- GI50 (OVCAR-5 ovarian): 22.3 µM
- TGI (OVCAR-5 ovarian): 73.5 µM

Source: PubChem BioAssay (NCI)
